In ChEMBL document CHEMBL3431459, “Roche carnitine palmitoyltransferase modulator screening data (supplementary data associated with the publication CHEMBL2216752)”:
Converted amounts (≈) assume the structure as drawn.

Tests used:
[1] = SUPPLEMENTARY: Lipophilicity (log D) Determination by high-throughput shake-flask; format: physicochemical; details: octanol/water
[2] = biological target: T1, Carnitine O-palmitoyltransferase 1, muscle isoform (Homo sapiens, UniProt Q92523); test: SUPPLEMENTARY: Inhibition of Carnitine palmitoyltransferase 1, muscle isoform; design: species or system Muscle tissue
T1 sequence (Q92523 whole entry): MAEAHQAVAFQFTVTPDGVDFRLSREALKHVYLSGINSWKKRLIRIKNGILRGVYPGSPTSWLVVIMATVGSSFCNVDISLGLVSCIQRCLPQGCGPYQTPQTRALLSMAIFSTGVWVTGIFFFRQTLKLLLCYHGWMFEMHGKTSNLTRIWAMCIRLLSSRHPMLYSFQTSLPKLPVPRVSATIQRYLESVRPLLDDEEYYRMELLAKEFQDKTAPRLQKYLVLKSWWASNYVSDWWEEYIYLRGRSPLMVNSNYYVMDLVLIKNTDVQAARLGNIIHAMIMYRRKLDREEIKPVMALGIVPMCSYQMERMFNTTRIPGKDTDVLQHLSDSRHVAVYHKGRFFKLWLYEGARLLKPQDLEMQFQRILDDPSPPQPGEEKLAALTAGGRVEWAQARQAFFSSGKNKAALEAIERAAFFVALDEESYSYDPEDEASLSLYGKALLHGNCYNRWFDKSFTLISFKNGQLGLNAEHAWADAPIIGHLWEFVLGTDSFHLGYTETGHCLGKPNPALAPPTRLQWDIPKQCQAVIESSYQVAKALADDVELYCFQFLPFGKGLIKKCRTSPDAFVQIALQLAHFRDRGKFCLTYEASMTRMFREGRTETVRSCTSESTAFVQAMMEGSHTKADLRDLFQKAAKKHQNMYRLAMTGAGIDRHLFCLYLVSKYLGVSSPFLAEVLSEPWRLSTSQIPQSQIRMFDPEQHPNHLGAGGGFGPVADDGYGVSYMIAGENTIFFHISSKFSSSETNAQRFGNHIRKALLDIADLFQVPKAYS

[3] = SUPPLEMENTARY: PAMPA permeability assay; format: physicochemical; details: read-out: Permeability
[4] = biological target: T2, Carnitine O-palmitoyltransferase 1, liver isoform (Rattus norvegicus, UniProt P32198); test: (§1) SUPPLEMENTARY: Inhibition of Carnitine palmitoyltransferase 1, liver isoform
T2 sequence (P32198 whole entry): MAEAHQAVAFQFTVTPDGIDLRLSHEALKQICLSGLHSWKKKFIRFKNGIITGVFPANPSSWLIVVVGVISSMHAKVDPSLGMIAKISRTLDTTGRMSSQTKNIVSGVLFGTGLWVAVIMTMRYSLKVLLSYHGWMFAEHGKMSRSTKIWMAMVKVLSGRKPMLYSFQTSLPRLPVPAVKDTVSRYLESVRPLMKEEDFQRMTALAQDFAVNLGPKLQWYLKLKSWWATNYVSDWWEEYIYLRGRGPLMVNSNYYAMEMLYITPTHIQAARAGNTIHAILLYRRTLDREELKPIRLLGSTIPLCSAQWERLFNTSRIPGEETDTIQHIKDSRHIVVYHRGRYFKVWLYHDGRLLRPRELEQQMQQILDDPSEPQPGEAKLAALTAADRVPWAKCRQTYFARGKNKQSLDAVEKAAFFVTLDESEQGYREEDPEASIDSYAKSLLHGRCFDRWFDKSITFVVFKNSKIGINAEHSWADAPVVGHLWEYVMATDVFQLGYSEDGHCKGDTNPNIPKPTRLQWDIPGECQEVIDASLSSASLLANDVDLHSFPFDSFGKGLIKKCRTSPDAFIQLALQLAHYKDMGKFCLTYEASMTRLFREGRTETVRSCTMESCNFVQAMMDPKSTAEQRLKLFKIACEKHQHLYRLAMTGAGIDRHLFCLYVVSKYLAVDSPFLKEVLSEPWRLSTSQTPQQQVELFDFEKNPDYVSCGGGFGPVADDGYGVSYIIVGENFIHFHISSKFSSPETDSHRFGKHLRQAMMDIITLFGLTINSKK

[5] = biological target: T3, Carnitine O-palmitoyltransferase 1, liver isoform (Homo sapiens, UniProt P50416); test: as §1
T3 sequence (P50416 whole entry): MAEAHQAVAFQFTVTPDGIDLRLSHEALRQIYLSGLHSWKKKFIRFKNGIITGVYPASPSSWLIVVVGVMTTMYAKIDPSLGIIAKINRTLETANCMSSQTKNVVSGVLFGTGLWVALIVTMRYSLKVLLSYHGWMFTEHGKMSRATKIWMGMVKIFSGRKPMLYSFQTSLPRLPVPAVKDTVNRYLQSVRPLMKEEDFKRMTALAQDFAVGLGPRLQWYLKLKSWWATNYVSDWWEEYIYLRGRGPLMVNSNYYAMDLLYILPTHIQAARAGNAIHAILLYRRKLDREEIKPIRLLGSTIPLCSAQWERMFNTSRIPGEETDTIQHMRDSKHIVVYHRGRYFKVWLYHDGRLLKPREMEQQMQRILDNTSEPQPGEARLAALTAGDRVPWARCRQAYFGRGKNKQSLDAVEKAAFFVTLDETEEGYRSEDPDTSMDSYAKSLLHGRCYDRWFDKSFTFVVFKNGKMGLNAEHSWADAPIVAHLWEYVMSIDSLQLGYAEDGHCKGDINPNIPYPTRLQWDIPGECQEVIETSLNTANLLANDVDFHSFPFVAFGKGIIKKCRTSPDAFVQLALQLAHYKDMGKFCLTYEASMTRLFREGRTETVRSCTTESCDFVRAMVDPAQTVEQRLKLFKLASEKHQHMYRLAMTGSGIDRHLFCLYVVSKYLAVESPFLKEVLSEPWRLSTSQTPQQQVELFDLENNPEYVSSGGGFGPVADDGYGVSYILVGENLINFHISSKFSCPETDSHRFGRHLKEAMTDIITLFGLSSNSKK

[6] = SUPPLEMENTARY: Lyophilisation Solubility Assay (LYSA); format: physicochemical; details: read-out: Kinetic_solubility
[7] = biological target: T4, Carnitine O-palmitoyltransferase 2, mitochondrial (Homo sapiens, UniProt P23786); test: (§2) SUPPLEMENTARY: Inhibition of Carnitine palmitoyltransferase 2
T4 sequence (P23786 whole entry): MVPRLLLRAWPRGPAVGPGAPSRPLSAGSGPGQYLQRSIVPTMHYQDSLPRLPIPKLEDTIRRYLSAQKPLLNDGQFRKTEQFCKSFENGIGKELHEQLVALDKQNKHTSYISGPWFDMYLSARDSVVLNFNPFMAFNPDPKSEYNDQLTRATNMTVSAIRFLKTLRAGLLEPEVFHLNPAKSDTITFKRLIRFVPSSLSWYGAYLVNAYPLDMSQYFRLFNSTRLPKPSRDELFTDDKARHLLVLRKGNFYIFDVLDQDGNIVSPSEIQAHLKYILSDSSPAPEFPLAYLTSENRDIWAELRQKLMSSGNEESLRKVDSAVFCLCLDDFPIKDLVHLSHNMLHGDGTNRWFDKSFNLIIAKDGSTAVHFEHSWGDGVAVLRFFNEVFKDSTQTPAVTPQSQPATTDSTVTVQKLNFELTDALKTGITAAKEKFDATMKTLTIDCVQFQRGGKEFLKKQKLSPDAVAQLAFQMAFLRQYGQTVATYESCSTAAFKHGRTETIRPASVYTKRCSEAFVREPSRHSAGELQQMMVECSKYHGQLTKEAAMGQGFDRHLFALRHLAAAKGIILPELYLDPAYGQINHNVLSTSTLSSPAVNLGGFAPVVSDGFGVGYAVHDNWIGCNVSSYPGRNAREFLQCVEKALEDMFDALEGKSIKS

[8] = biological target: T5, Carnitine O-palmitoyltransferase 2, mitochondrial (Rattus norvegicus, UniProt P18886); test: as §2
T5 sequence (P18886 whole entry): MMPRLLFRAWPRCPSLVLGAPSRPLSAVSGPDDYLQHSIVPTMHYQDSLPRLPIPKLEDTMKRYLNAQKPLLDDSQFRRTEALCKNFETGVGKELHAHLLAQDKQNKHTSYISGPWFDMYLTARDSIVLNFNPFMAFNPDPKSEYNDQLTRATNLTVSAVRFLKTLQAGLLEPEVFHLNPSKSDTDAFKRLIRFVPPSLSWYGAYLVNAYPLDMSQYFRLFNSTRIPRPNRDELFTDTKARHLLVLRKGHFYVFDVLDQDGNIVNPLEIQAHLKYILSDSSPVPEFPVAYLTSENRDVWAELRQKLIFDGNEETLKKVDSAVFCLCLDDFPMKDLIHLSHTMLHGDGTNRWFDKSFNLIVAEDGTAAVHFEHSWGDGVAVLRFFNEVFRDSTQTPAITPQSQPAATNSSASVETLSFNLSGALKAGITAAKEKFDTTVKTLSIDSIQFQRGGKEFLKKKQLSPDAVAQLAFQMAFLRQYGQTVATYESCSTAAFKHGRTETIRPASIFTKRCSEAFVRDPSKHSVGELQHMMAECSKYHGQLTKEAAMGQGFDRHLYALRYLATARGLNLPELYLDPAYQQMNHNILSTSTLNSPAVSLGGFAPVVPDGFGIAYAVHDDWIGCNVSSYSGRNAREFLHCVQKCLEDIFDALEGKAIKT

Row | SMILES | logD [1] | IC50 [2] [nM] | Papp [3] [×10⁻⁶ cm/s] | IC50 [4] [nM] | IC50 [5] [nM] | solubility kinetic [6] [µg/mL] | IC50 [7] [nM] | IC50 [8] [nM]
1 | O=C([C@H]1CCCCN1C(=O)COc1ccccc1)N1CCc2cccc(Cl)c2C1 | 3.2 | 79000 | 1.91 | 110 | 182 | < 1 | 2810 | 3520
2 | CC(=O)NCc1cccc(-c2n[nH]c([C@H]3CCCCN3C(=O)COc3ccccc3)n2)c1 | 2.17 | > 100000 | 4.04 | 428 | 190 | 295 (≈ 680 µM) | 54300 | > 100000
3 | COc1ccc(Cl)cc1S(=O)(=O)N1CC(C(=O)O)Cc2ccc(C(=O)Nc3ccccc3)cc21 (configuration not stated) | 0.31 | 5900 | 1.83 | 14 | 20.8 | 203 (≈ 405 µM) | > 100000 | > 100000
4 | CN1CCN(C(=O)COc2ccccc2)[C@@H](c2nc(-c3ccc4[nH]nnc4c3)no2)C1 | 1.86 | > 100000 | 3.75 | 265 | 24.6 | 167 (≈ 398 µM) | > 100000 | > 100000
5 | O=C(COc1ccccc1)N1CCCC[C@@H]1c1nc(-c2cccc(N3CCCS3(=O)=O)c2)no1 | 2.82 | > 100000 | 24.5 | 59.8 | 59.7 | < 1 | > 100000 | > 100000
6 | CCOc1ccc2c(c1)CN(C(=O)[C@H]1CCCCN1C(=O)COc1ccccc1)C2 | 3.23 | > 100000 | 5.52 | 232 | 161 | 30 (≈ 73.4 µM) | 468 | 539
7 | CCN1C(=O)CC(C)(C)c2ccc(-c3nc([C@H]4CCCCN4C(=O)COc4ccccc4)no3)cc21 | > 3 | > 100000 | 0.4 | 172 | 168 | < 1 | > 100000 | > 100000
8 | CS(=O)(=O)NCc1cccc(-c2nc([C@H]3CCCCN3C(=O)COc3ccccc3)no2)c1 | 2.44 | > 100000 | 1.77 | 160 | 65.4 | 94 (≈ 200 µM) | 22800 | > 100000

These reach a lower IC50 [2]. Values come first.

Row | logD [1] | IC50 [2] [nM] | Papp [3] [×10⁻⁶ cm/s] | IC50 [4] [nM] | IC50 [5] [nM] | solubility kinetic [6] [µg/mL] | IC50 [7] [nM] | IC50 [8] [nM] | SMILES
9 | -1.09 | 4380 | 0.01 | 261 | 153 | 378 (≈ 802 µM) | > 100000 | > 100000 | O=C(O)c1ccc(NC(=O)c2ccc(NS(=O)(=O)c3cc(Cl)cc(Cl)c3)s2)cc1
10 | 0.77 | 3680 | 1.65 | 96.2 | 71 | 60 (≈ 116 µM) | 286 | 684 | COc1ccc(Cl)cc1S(=O)(=O)N1CCc2c(C)cc(C(=O)Nc3ccc(C(=O)O)c(F)c3)cc21
11 | 0.79 | 1540 | 2.82 | 118 | 203 | 226 (≈ 472 µM) | 83900 | > 100000 | COc1ccc(C)cc1S(=O)(=O)n1ccc2ccc(C(=O)Nc3ccc(CC(=O)O)cc3)cc21
12 | 2.84 | 820 | 3.53 | 374 | 163 | 109 (≈ 192 µM) | 38300 | > 100000 | COc1ccc(Cl)cc1S(=O)(=O)N(c1cc(C(=O)Nc2ncc(CC(=O)O)s2)cc2c1OCO2)C(C)C
13 | 2.74 | 620 | 3.22 | 98.9 | 88.4 | 144 (≈ 260 µM) | > 100000 | > 100000 | CCN(c1cc(C(=O)Nc2ncc(CC(=O)O)s2)cc2c1OCO2)S(=O)(=O)c1cc(Cl)ccc1OC
14 | 0.25 | 439 | 0.95 | 54.5 | 75.4 | 26 (≈ 53.1 µM) | > 100000 | > 100000 | Cn1cc(S(=O)(=O)c2cccc(Cl)c2)c2cc(C(=O)Nc3nc(CC(=O)O)cs3)ccc21
